The text below walks through data of article PMC4331650 (Biochimica et Biophysica Acta, 2014).

SMILES strings stand for the structures. Residue numbers refer to the chain shown, from its start. Where “and” joins values, the source holds several entries; their conditions need not be identical. Equal values may be shown once.

In assay [1] the target is T1, WT CLC-Ka (Homo sapiens, UniProt P51800).
T1 sequence (P51800 1-687): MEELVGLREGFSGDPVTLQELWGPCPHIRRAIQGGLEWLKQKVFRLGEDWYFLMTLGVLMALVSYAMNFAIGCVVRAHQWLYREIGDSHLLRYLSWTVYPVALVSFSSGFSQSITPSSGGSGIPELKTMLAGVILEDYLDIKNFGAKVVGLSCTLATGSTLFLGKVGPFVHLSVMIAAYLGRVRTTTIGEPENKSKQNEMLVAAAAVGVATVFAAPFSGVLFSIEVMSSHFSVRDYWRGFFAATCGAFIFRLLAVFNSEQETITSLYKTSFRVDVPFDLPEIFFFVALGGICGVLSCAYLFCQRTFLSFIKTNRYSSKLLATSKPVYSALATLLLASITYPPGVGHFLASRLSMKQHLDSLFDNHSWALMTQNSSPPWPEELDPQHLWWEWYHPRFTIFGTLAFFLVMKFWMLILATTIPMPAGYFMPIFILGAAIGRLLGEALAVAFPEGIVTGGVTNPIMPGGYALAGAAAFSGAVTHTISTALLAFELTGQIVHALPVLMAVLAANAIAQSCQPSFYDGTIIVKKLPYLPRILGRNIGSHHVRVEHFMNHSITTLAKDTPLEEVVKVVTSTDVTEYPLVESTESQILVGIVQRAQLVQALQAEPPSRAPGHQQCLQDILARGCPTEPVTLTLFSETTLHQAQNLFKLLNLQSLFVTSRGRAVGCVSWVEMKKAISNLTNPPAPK
T1 sequence (Q8WZ55 1-320 Y98A partner): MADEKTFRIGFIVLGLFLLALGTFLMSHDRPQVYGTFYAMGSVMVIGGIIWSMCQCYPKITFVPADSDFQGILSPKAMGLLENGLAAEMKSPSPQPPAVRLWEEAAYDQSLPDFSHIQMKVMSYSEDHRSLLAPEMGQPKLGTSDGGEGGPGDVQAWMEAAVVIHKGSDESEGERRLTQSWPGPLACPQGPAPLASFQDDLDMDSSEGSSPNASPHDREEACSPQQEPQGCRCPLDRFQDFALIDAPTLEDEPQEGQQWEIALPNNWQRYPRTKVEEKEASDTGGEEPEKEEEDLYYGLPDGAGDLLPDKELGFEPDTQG
The note with it: Xenopus oocytes; cited from earlier work.

Assay [2] deals with T2, N257A CLC-Ka (Homo sapiens, UniProt P51800, N257A).
T2 sequence (P51800 1-687 N257A): T1 sequence (P51800 1-687) with N257A
T2 sequence (Q8WZ55 1-320 Y98A partner): T1 sequence (Q8WZ55 1-320 Y98A partner)
It is filed as cell-based. The note with it: 100 μM CPAint; negative voltages.

In assay [3] the target is T2, N257A CLC-Ka. It is filed as cell-based. The note with it: 50 μM CPA, intracellular; −100 mV.
Assay [4] concerns CLC-0. Conditions: negative potentials; cited from earlier work.
In assay [5] the test system is CLC-1. Conditions: negative potentials; cited from earlier work.

For the compound `O=C(O)c1ccccc1Nc1cccc(C(F)(F)F)c1` [flufenamic acid], the “effect on CLC-Ka” value in assay [1] was “inhibit”.
`O=C(O)COc1ccc(Cl)cc1` [CPA, p-chlorophenoxy-acetic acid]: the “effect of CPA on currents” value in assay [2] is listed as “inhibits”. For the same compound, in assay [3], the “amplitude of predominant conductance level in the presence of CPA” value is ~ 0.66 pA and 0.66 pA. In assay [4], the “effect on CLC-0 currents” value is “block”. For the same compound, in assay [5], the “effect on CLC-1 currents” value is reported as “block”.
Turning to `O=S(=O)(O)c1cc(N=C=S)ccc1C=Cc1ccc(N=C=S)cc1S(=O)(=O)O` [DIDS], the “effect on CLC-Ka” value in assay [1] is reported as “inhibit”.
